In paper PMC4444998 (Journal of Natural Products, 2015):

How the values were obtained:
Type in all cases: biochemical
Bovine trypsin = experiment: Trypsin inhibition assay (Bz-Arg-AMC, fluorimetry); settings: for inhibition of trypsin protease activity: cyclotides kalata B1 or psysol 2 at 25 µM and 75 µM, respectively, triplicate
Procedure: (§1) Inhibitory activity was performed in triplicate in 96-well microtiter plates. Bovine trypsin (10 μL of a 10 ng/μL solution; Roche, Basel, Switzerland) or bovine α-chymotrypsin (10 μL of a 2.5 ng/μL solution; Sigma-Aldrich) was preincubated for 15 min at 37 °C with buffer (125 μL of a 20 mM Tris-HCl solution, pH 8.0) and with 3 μL of the cyclotide solution or ddH2O as negative control. After preincubation, trypsin substrate (Bz-Arg-AMC-HCl, 10 μL of a 3 mM solution prepared in 40% 1,4-dioxane; Bachem, Bubendorf, Switzerland) or chymotrypsin substrate (Ala-Ala-Phe-AMC, 10 μL of a 3 mM solution prepared in 40% 1,4-dioxane; Sigma-Aldrich), respectively, was added, and the reaction was incubated while shaking (90 rpm) for 1 h at 37 °C. The reaction was stopped with sodium acetate (150 μL, 1 M, pH 4), and the formation of AMC was measured by fluorimetry. The excitation and emission wavelengths were 360 ± 40 and 485 ± 20 nm, respectively. Phenylmethane-sulfonylfluoride (PMSF; 3 μL of a 5 mM solution in DMSO) was used as a positive control of inhibition; additional controls with DMSO solution only were also performed. Data were calculated as percentage of inhibition and are presented as mean ± STDEV (of three replicates).

[1] = biological target: T1, human prolyl oligopeptidase (POP) (Homo sapiens, UniProt P48147); experiment: Prolyl oligopeptidase inhibition assay (Z-Gly-Pro-AMC, fluorimetry)
T1 construct: made in house
T1 sequence (P48147 1-710): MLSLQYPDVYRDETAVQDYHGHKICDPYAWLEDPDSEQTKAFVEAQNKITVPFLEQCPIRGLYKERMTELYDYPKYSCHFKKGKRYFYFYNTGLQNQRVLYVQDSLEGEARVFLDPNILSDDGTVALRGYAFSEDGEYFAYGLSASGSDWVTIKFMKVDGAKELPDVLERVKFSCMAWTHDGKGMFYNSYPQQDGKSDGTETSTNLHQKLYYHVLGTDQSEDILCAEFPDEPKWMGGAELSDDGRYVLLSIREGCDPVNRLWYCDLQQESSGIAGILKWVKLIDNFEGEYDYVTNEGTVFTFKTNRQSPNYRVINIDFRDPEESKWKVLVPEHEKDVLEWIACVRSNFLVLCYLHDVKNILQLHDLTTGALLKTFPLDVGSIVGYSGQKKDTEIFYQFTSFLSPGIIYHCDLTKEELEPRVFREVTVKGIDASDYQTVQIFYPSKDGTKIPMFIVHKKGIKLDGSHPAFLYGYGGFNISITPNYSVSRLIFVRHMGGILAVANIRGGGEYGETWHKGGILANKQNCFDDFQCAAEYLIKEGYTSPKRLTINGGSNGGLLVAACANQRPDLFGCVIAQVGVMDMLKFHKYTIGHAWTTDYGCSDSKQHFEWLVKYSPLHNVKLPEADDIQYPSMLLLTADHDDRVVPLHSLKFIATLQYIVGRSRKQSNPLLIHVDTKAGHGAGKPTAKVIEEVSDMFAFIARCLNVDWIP

bovine α-chymotrypsin = experiment: Chymotrypsin inhibition assay (Ala-Ala-Phe-AMC, fluorimetry); settings: for inhibition of chymotrypsin activity: cyclotides at 25 µM and 75 µM, triplicate
Procedure: as §1

Row | SMILES | inhibition of trypsin protease activity (Bovine trypsin) | IC50 ([1]; POP enzyme inhibition potency IC50, synthetic cyclotide, mean of three replicates) [µM] | inhibition of chymotrypsin activity (bovine α-chymotrypsin) | selectivity toward inhibition of POP over trypsin and chymotrypsin ([1]; POP IC50 compared with no inhibition of trypsin/chymotrypsin at 25 and 75 μM) | inhibition of trypsin activity (positive control) (Bovine trypsin; 100 µM) | inhibition of chymotrypsin activity (positive control) (bovine α-chymotrypsin; 100 µM)
1 | CC[C@H](C)[C@@H]1NC(=O)[C@@H]2CCCN2C(=O)[C@H](CC(C)C)NC(=O)CNC(=O)[C@H](CC(N)=O)NC(=O)[C@H](CCCNC(=N)N)NC(=O)[C@H]([C@@H](C)O)NC(=O)[C@@H]2CSSC[C@@H]3NC(=O)[C@H]([C@@H](C)O)NC(=O)CNC(=O)CNC(=O)[C@H](C(C)C)NC(=O)[C@@H]4CSSC[C@H](NC(=O)[C@H]([C@@H](C)O)NC(=O)[C@H](CSSC[C@H](NC1=O)C(=O)NCC(=O)N[C@@H](CCC(=O)O)C(=O)N[C@@H](CO)C(=O)N4)NC(=O)CNC(=O)[C@@H]1CCCN1C(=O)[C@H]([C@@H](C)O)NC(=O)[C@H](CC(N)=O)NC3=O)C(=O)N[C@@H]([C@@H](C)O)C(=O)N[C@@H](Cc1c[nH]c3ccccc13)C(=O)N1CCC[C@H]1C(=O)N[C@@H](C(C)C)C(=O)N2 [psysol 2 (1), psysol 2] | not inhibited | 27.8 | had no effect | – | – | –
2 | CC(C)C[C@@H]1NC(=O)CNC(=O)[C@H](CC(N)=O)NC(=O)[C@H](CCCNC(=N)N)NC(=O)[C@H]([C@@H](C)O)NC(=O)[C@@H]2CSSC[C@@H]3NC(=O)[C@H]([C@@H](C)O)NC(=O)CNC(=O)CNC(=O)[C@H](C(C)C)NC(=O)[C@@H]4CSSC[C@H](NC(=O)[C@H]([C@@H](C)O)NC(=O)[C@H](CSSC[C@H](NC(=O)[C@H](C(C)C)NC(=O)[C@@H]5CCCN5C1=O)C(=O)NCC(=O)N[C@@H](CCC(=O)O)C(=O)N[C@@H]([C@@H](C)O)C(=O)N4)NC(=O)CNC(=O)[C@@H]1CCCN1C(=O)[C@H]([C@@H](C)O)NC(=O)[C@H](CC(N)=O)NC3=O)C(=O)N[C@@H](CO)C(=O)N[C@@H](Cc1c[nH]c3ccccc13)C(=O)N1CCC[C@H]1C(=O)N[C@@H](C(C)C)C(=O)N2 [kalata B1] | not inhibited | – | had no effect | at least an order of magnitude more selective | – | –
3 | O=S(=O)(F)Cc1ccccc1 [PMSF, Phenylmethane-sulfonylfluoride] | – | – | – | – | able to inhibit | completel y blocked
